Source: ChEMBL document CHEMBL3244226, “5-Cyano-2'-deoxyuridine 5'-phosphate: a potent competitive inhibitor of thymidylate synthetase” (J Med Chem, 1979)
Active and inactive are the calls of the source. The calls are words filed in the database; no cut-off is given here.

What was measured:
Thymidylate synthase = molecular target: T1, Thymidylate synthase (Lactobacillus casei, UniProt P00469); assay: Competitive inhibition of thymidylate synthase purified from methotrexate-resistant Lactobacillus casei using 2'-deoxy[5-3H]uridine 5'-phosphate by radioisotope assay; parameters: species or system Lacticaseibacillus casei
T1 sequence (P00469 whole entry): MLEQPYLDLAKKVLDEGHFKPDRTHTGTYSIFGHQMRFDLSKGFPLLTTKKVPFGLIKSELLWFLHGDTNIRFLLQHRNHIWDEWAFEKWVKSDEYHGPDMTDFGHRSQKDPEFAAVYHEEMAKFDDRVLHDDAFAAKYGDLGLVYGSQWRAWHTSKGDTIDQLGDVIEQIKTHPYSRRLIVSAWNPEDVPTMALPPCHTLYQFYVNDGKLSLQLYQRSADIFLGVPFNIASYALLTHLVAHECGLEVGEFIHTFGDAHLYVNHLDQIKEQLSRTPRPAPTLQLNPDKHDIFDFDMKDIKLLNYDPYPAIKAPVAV

[1] = molecular target: T2, Thymidylate synthase (Lactobacillus casei) (UniProt P00469); assay: Irreversible inhibition of thymidylate synthase purified from methotrexate-resistant Lactobacillus casei using 2'-deoxy[5-3H]uridine 5'-phosphate preincubated at 4 uM for 12 mins in absence of co-factor; details: Lacticaseibacillus casei
T2 sequence (whole entry): T1 sequence (P00469 whole entry)

| Structure (SMILES) | Ki (Thymidylate synthase) [nM] | inhibition [1] |
| --- | --- | --- |
| O=c1[nH]c(=O)n([C@H]2C[C@H](O)[C@@H](COP(=O)(O)O)O2)cc1[N+](=O)[O-] | 29 |  |
| N#Cc1cn([C@H]2C[C@H](O)[C@@H](COP(=O)(O)O)O2)c(=O)[nH]c1=O | 550 | inactive |
| O=c1[nH]c(=O)n([C@H]2C[C@H](O)[C@@H](COP(=O)(O)O)O2)cc1S | 40 |  |
